Where “and” joins values, the source holds several entries; their conditions need not be identical. Equal entries are not always repeated. Toxic doses and inconclusive results are not listed. Rule for the calls: active = survival T/C of 150% or more; inactive = T/C below 125% in these data.
System: P388 leukemia ip, CD2F1 mice, survival T/C
Assay: NCI In Vivo Anticancer Drug Screen. Data for tumor model P388 Leukemia (intraperitoneal) in CD2F1 (CDF1) mice
Conditions: endpoint: median survival time, higher = longer survival
How it was run: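 Mice carrying the transplanted tumor received test compound or vehicle. Survival was recorded in each group, and the value is the treated-group measurement divided by that of the vehicle-treated control group.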

[1] = dose: 12.5 mg/kg/injection, schedule: Q04DX003 (ip), vehicle: saline
[2] = dose: 50.0 mg/kg/injection, schedule: Q01DX009 (ip), vehicle: saline with Tween-80
[3] = dose: 100.0 mg/kg/injection, schedule: Q01DX009 (ip), vehicle: saline with Tween-80
[4] = dose: 50.0 mg/kg/injection, schedule: Q01DX005 (ip), vehicle: saline with Tween-80
[5] = dose: 100.0 mg/kg/injection, schedule: Q01DX005 (ip), vehicle: saline with Tween-80
[6] = dose: 200.0 mg/kg/injection, schedule: Q01DX005 (ip), vehicle: saline with Tween-80
[7] = dose: 25.0 mg/kg/injection, schedule: Q01DX009 (ip), vehicle: saline
[8] = dose: 6.25 mg/kg/injection, schedule: Q01DX009 (ip), vehicle: saline with Tween-80
[9] = dose: 12.5 mg/kg/injection, schedule: Q01DX009 (ip), vehicle: saline with Tween-80
[10] = dose: 25.0 mg/kg/injection, schedule: Q01DX009 (ip), vehicle: saline with Tween-80
[11] = dose: 50.0 mg/kg/injection, schedule: Q01DX009 (ip), vehicle: Klucel (hydroxypropylcellulose) (HPC)
[12] = dose: 100.0 mg/kg/injection, schedule: Q01DX009 (ip), vehicle: Klucel (hydroxypropylcellulose) (HPC)
[13] = dose: 6.25 mg/kg/injection, schedule: Q01DX009 (ip), vehicle: Klucel (hydroxypropylcellulose) (HPC)
[14] = dose: 12.5 mg/kg/injection, schedule: Q01DX009 (ip), vehicle: Klucel (hydroxypropylcellulose) (HPC)
[15] = dose: 25.0 mg/kg/injection, schedule: Q01DX009 (ip), vehicle: Klucel (hydroxypropylcellulose) (HPC)
[16] = dose: 50.0 mg/kg/injection, schedule: Q01DX005 (ip), vehicle: Klucel (hydroxypropylcellulose) (HPC)
[17] = dose: 100.0 mg/kg/injection, schedule: Q01DX005 (ip), vehicle: Klucel (hydroxypropylcellulose) (HPC)
[18] = dose: 200.0 mg/kg/injection, schedule: Q01DX005 (ip), vehicle: Klucel (hydroxypropylcellulose) (HPC)
[19] = dose: 60.0 mg/kg/injection, schedule: Q01DX005 (ip), vehicle: saline with Tween-80
[20] = dose: 120.0 mg/kg/injection, schedule: Q01DX005 (ip), vehicle: saline with Tween-80
[21] = dose: 240.0 mg/kg/injection, schedule: Q01DX005 (ip), vehicle: saline with Tween-80
[22] = dose: 50.0 mg/kg/injection, schedule: Q01DX009 (ip), vehicle: saline

Measured: T/C

C[CH2][Sn]1([CH2]C)[O]C(=O)CC(=O)[O]1
inactive: dose: 1.56 mg/kg/injection, schedule: Q04DX003 (ip), vehicle: saline 105 % of control and 120 % of control | dose: 3.12 mg/kg/injection, schedule: Q04DX003 (ip), vehicle: saline 115 % of control and 118 % of control | dose: 6.25 mg/kg/injection, schedule: Q04DX003 (ip), vehicle: saline 114 % of control and 124 % of control | [1] 109 % of control

C#CC(C)(O)C(O)c1ccccc1 (stereo not given)
inactive: [2] 98 % of control | [3] 109 % of control | dose: 200.0 mg/kg/injection, schedule: Q01DX009 (ip), vehicle: saline with Tween-80 96 % of control

Cc1cccc(NC(=S)NNc2nnc(-c3ccccc3)c(-c3ccccc3)n2)c1
inactive: [4] 90 % of control | [5] 99 % of control | [6] 100 % of control

Cc1ccc(NC(=O)CCSC(=O)Nc2ccc(C)cc2)cc1
inactive: dose: 100.0 mg/kg/injection, schedule: Q04DX002 (ip), vehicle: Klucel (hydroxypropylcellulose) (HPC) 101 % of control | dose: 200.0 mg/kg/injection, schedule: Q04DX002 (ip), vehicle: Klucel (hydroxypropylcellulose) (HPC) 104 % of control | dose: 400.0 mg/kg/injection, schedule: Q04DX002 (ip), vehicle: Klucel (hydroxypropylcellulose) (HPC) 104 % of control

CC(C)(C)c1cc(I)c(O)c(CN)c1
inactive: [7] 123 % of control

CCCCOC(=O)/C=C(\I)C(=O)OCCCC
inactive: [8] 101 % of control and 110 % of control and 92 % of control | [9] 112 % of control and 114 % of control and 96 % of control | [10] 113 % of control and 120 % of control and 124 % of control | [2] 110 % of control and 111 % of control and 118 % of control

CCOC(=O)C1=C(C)NC(C)=C(C(=O)OCC)C1c1ccccn1
inactive: [11] 99 % of control | [12] 97 % of control | dose: 200.0 mg/kg/injection, schedule: Q01DX009 (ip), vehicle: Klucel (hydroxypropylcellulose) (HPC) 96 % of control

Cc1ccc(NC(=O)NC(=O)CCl)cc1
inactive: [13] 105 % of control | [14] 99 % of control | [15] 101 % of control and 105 % of control | [10] 92 % of control | [11] 104 % of control and 108 % of control and 113 % of control | [12] 123 % of control | [3] 106 % of control

CC(=O)N(C(C)=O)c1ccc(C)cc1
inactive: [14] 94 % of control | [15] 94 % of control | [11] 100 % of control

CN1CCCC(CN2c3ccccc3Sc3ccccc32)C1 (stereo not given)
inactive: dose: 12.5 mg/kg/injection, schedule: Q01DX005 (ip), vehicle: saline with Tween-80 100 % of control | dose: 25.0 mg/kg/injection, schedule: Q01DX005 (ip), vehicle: saline with Tween-80 102 % of control | [4] 104 % of control and 105 % of control | [5] 111 % of control

NC(CC1C(=O)Nc2ccccc21)C(=O)O (stereo not given)
inactive: [4] 104 % of control | [5] 103 % of control | [6] 103 % of control

CN(CCO)CC(O)Cn1cnc2c(N)ncnc21 (stereo not given)
inactive: dose: 60.0 mg/kg/injection, schedule: Q01DX005 (ip), vehicle: saline 95 % of control | dose: 120.0 mg/kg/injection, schedule: Q01DX005 (ip), vehicle: saline 97 % of control | dose: 240.0 mg/kg/injection, schedule: Q01DX005 (ip), vehicle: saline 100 % of control

CCn1c(Cl)c(/C=N/NC(N)=S)c2ccccc21
inactive: dose: 100.0 mg/kg/injection, schedule: Q01DX001 (ip), vehicle: Klucel (hydroxypropylcellulose) (HPC) 97 % of control | dose: 200.0 mg/kg/injection, schedule: Q01DX001 (ip), vehicle: Klucel (hydroxypropylcellulose) (HPC) 91 % of control

C=CC1CC(NC(=O)OC)C(=O)O1 (stereo not given)
inactive: [4] 104 % of control | [5] 104 % of control | [6] 99 % of control

CCCNc1cc(C)cc2[nH]c(C)nc12
inactive: dose: 25.0 mg/kg/injection, schedule: Q01DX005 (ip), vehicle: Klucel (hydroxypropylcellulose) (HPC) 103 % of control | [16] 100 % of control | [17] 103 % of control | [18] 94 % of control

O=C(Nc1ccc(Cl)cc1)Nc1nnc(/C=C/c2ccc(Cl)c(Cl)c2)o1
inactive: [19] 95 % of control | [20] 91 % of control | [21] 101 % of control

C[n+]1[se]c2ccccc2c1Cl
inactive: dose: 3.12 mg/kg/injection, schedule: Q01DX009 (ip), vehicle: Klucel (hydroxypropylcellulose) (HPC) 105 % of control | [13] 99 % of control | [14] 99 % of control and 89 % of control

O=C1C(=O)c2ccccc2C(O)=C1Sc1ccc2ccccc2c1
inactive: dose: 3.13 mg/kg/injection, schedule: Q01DX009 (ip), vehicle: saline with Tween-80 100 % of control | [8] 99 % of control | [9] 95 % of control

Nc1ccccc1-c1ccccc1[N+](=O)[O-]
inactive: [22] 95 % of control | dose: 100.0 mg/kg/injection, schedule: Q01DX009 (ip), vehicle: saline 96 % of control | dose: 200.0 mg/kg/injection, schedule: Q01DX009 (ip), vehicle: saline 95 % of control

CCN1C2=NCCN2S(=O)(=O)c2ccccc21
inactive: [19] 96 % of control | [20] 97 % of control | [21] 97 % of control

O=C(Nc1nc(-c2ccccc2)cs1)OCC(Cl)(Cl)Cl
inactive: [4] 93 % of control | [5] 91 % of control | [6] 96 % of control

CCCCOc1cccc2c(NCCCCCCNc3c4ccccc4nc4c(OCCCC)cccc34)c3ccccc3nc12
inactive: dose: 0.62 mg/kg/injection, schedule: Q## X009 (ip), vehicle: lactic acid 104 % of control | dose: 1.25 mg/kg/injection, schedule: Q## X009 (ip), vehicle: lactic acid 104 % of control | dose: 2.5 mg/kg/injection, schedule: Q## X009 (ip), vehicle: lactic acid 106 % of control | dose: 5.0 mg/kg/injection, schedule: Q## X009 (ip), vehicle: lactic acid 99 % of control

COC(=O)C1CCC2C(C1)OC1(CC(OC(=O)/C=C\c3ccccc3)C(C)CO1)C2(O)CO (stereo not given)
inactive: dose: 5.0 mg/kg/injection, schedule: Q01DX009 (ip), vehicle: saline + alcohol 98 % of control | dose: 10.0 mg/kg/injection, schedule: Q01DX009 (ip), vehicle: saline + alcohol 103 % of control | dose: 20.0 mg/kg/injection, schedule: Q01DX009 (ip), vehicle: saline + alcohol 105 % of control | dose: 40.0 mg/kg/injection, schedule: Q01DX009 (ip), vehicle: saline + alcohol 105 % of control

CC1CN1P(=O)(N1CCCCCC1)N1CC1C (stereo not given)
active: dose: 33.0 mg/kg/injection, schedule: Q01DX009 (ip), vehicle: saline 155 % of control | [22] 154 % of control and 166 % of control | dose: 100.0 mg/kg/injection, schedule: Q04DX003 (ip), vehicle: saline 158 % of control
inactive: [1] 104 % of control | dose: 22.0 mg/kg/injection, schedule: Q01DX009 (ip), vehicle: saline 122 % of control | dose: 25.0 mg/kg/injection, schedule: Q04DX003 (ip), vehicle: saline 100 % of control | dose: 75.0 mg/kg/injection, schedule: Q01DX009 (ip), vehicle: saline 111 % of control

Cn1c2ccccc2c(=O)c2cc(NC(=O)/C=C/C(=O)Nc3ccc4c(c3)c(=O)c3ccccc3n4C)ccc21
inactive: [4] 102 % of control | [5] 105 % of control | [6] 106 % of control

O=C1C=C2CCCCCCCC(C1)C2 (stereo not given)
inactive: [16] 113 % of control | [17] 108 % of control | [18] 110 % of control

CCCCC(CC)C[N+]1(C)CCOCC1 (stereo not given)
inactive: dose: 12.5 mg/kg/injection, schedule: Q01DX009 (ip), vehicle: saline 100 % of control | [7] 100 % of control | [22] 94 % of control

O=[N+]([O-])c1ccc(S(=O)(=O)OI(O)c2ccccc2)cc1
inactive: dose: 25.0 mg/kg/injection, schedule: Q01DX009 (ip), vehicle: water 104 % of control and 105 % of control | dose: 50.0 mg/kg/injection, schedule: Q01DX009 (ip), vehicle: water 98 % of control and 120 % of control and 96 % of control | dose: 100.0 mg/kg/injection, schedule: Q01DX009 (ip), vehicle: water 100 % of control and 101 % of control and 91 % of control
